According to patent US12396461B2, “Functional peptides having antimicrobial activity against phytopathogenic microorganisms” (TOYOTA JIDOSHA KABUSHIKI KAISHA, priority 2019, dated 2025):
Values joined by “and” are separate entries in the source; they are usually repeats but may differ in a detail not shown here. Equal values may be shown once. Read-outs that look alike come from different tables or passages of the source.

How the values were obtained:
[1] = system: Botrytis cinerea; format: cell-based; parameters: key to Plate antimicrobial activity test Botrytis cinerea, level: a case where hyphae extended to the entire well and no antimicrobial activity was found is defined as “level 0,”; a case where hyphae extended to less than a half of the well and thus the peptide inhibited the growth of the hyphae is defined as “level 1,”; a case where ungerminated spores were present and the peptide partially inhibited the germination is defined as “level 2,”; a case where all spores were ungerminated and the peptide completely inhibited the germination is defined as “level 3.”; details: 25° C. for 1 day or 2 days, microscopic observation
[2] = system: Colletotrichum destructivum; format: cell-based; parameters: key to Plate antimicrobial activity test Colletotrichum destructivum, level: a case where hyphae extended to the entire well and no antimicrobial activity was found is defined as “level 0,”; a case where hyphae extended to less than a half of the well and thus the peptide inhibited the growth of the hyphae is defined as “level 1,”; a case where ungerminated spores were present and the peptide partially inhibited the germination is defined as “level 2,”; a case where all spores were ungerminated and the peptide completely inhibited the germination is defined as “level 3.”; details: 25° C. for 1 day or 2 days, microscopic observation
[3] = system: Colletotrichum orbiculare; format: cell-based; parameters: key to Plate antimicrobial activity test Colletotrichum orbiculare, level: a case where hyphae extended to the entire well and no antimicrobial activity was found is defined as “level 0,”; a case where hyphae extended to less than a half of the well and thus the peptide inhibited the growth of the hyphae is defined as “level 1,”; a case where ungerminated spores were present and the peptide partially inhibited the germination is defined as “level 2,”; a case where all spores were ungerminated and the peptide completely inhibited the germination is defined as “level 3.”; details: 25° C. for 1 day or 2 days, microscopic observation
[4] = system: Fusarium oxysporum; format: cell-based; parameters: key to Plate antimicrobial activity test Fusarium oxysporum, level: a case where hyphae extended to the entire well and no antimicrobial activity was found is defined as “level 0,”; a case where hyphae extended to less than a half of the well and thus the peptide inhibited the growth of the hyphae is defined as “level 1,”; a case where ungerminated spores were present and the peptide partially inhibited the germination is defined as “level 2,”; a case where all spores were ungerminated and the peptide completely inhibited the germination is defined as “level 3.”
[5] = system: Pyricularia oryzae; format: cell-based; parameters: key to Plate antimicrobial activity test Pyricularia oryzae, level: a case where hyphae extended to the entire well and no antimicrobial activity was found is defined as “level 0,”; a case where hyphae extended to less than a half of the well and thus the peptide inhibited the growth of the hyphae is defined as “level 1,”; a case where ungerminated spores were present and the peptide partially inhibited the germination is defined as “level 2,”; a case where all spores were ungerminated and the peptide completely inhibited the germination is defined as “level 3.”; details: 25° C. for 1 day or 2 days, microscopic observation
[6] = system: Colletotrichum destructivum; assay: Colletotrichum destructivum leaf inoculation test (Chinese cabbage leaf); format: in vivo; details: Chinese cabbage leaf, 25° C. for 4 days, lesions by visual inspection, symbols ◯/Δ/X not defined
Experimental: In the present example, a suspension comprising Colletotrichum destructivum and a peptide to be tested was dropped on a plant leaf, and lesions were then observed by visual inspection to evaluate the antimicrobial activity of the tested peptide. First, the pores of Colletotrichum destructivum were suspended in water to result in a spore concentration of 5×10^5 spores/ml, so as to prepare a water suspension of spores. Subsequently, a peptide to be tested (TsORF6-1) was added to the water suspension of spores, so that the final concentration of the peptide to be tested became 0 μM, 1 μM, 10 μM or 100 μM. Thereafter, 10 μl each of the water suspension of spores containing the peptide to be tested was dropped on the front side and the back side of the leaf of Chinese cabbage (variety name: “Kigokoro 85”). In this condition, incubation was carried out at 25° C. for 4 days. Thereafter, the front and back sides of the leaf were observed by visual inspection.

[7] = system: plant pathogenic filamentous fungi; format: cell-based; details: Table 3

Substance	Plate antimicrobial activity test Botrytis cinerea, level ([1]; peptide 1 μM)	Plate antimicrobial activity test Botrytis cinerea, level ([1]; peptide 10 μM)	Plate antimicrobial activity test Botrytis cinerea, level ([1]; peptide 100 μM)	Plate antimicrobial activity test Colletotrichum destructivum, level ([2]; peptide 1 μM)	Plate antimicrobial activity test Colletotrichum destructivum, level ([2]; peptide 10 μM)	Plate antimicrobial activity test Colletotrichum destructivum, level ([2]; peptide 100 μM)	Plate antimicrobial activity test Colletotrichum orbiculare, level ([3]; peptide 1 μM)	Plate antimicrobial activity test Colletotrichum orbiculare, level ([3]; peptide 10 μM)	Plate antimicrobial activity test Colletotrichum orbiculare, level ([3]; peptide 100 μM)	Plate antimicrobial activity test Fusarium oxysporum, level [4]	Plate antimicrobial activity test Pyricularia oryzae, level ([5]; peptide 1 μM)	Plate antimicrobial activity test Pyricularia oryzae, level ([5]; peptide 10 μM)	Plate antimicrobial activity test Pyricularia oryzae, level ([5]; peptide 100 μM)	Leaf inoculation test Chinese cabbage/Colletotrichum destructivum ([6]; peptide 10 μM)	Leaf inoculation test Chinese cabbage/Colletotrichum destructivum ([6]; peptide 100 μM)	germination inhibitory activity against plant pathogenic filamentous fungi, result in words [7]
MKVMIVVK (listed as Solanum lycopersicum) [TsORF6-1-8aa-1, partial peptide of TsORF6-1, 8 amino acid residues]	0	0	2	0	0	3	0	0	3	3 and 0	0	0	3	Δ	◯	extremely excellent germination inhibitory activity
KVAKM (listed as Solanum lycopersicum) [TsORF6-1-5aa-15, partial peptide of TsORF6-1, 5 amino acid residues]	0	0	0	0	0	0	0	0	0	0	0	0	0	–	Δ	–
KVMIVVKT (listed as Solanum lycopersicum) [TsORF6-1-8aa-2, partial peptide of TsORF6-1, 8 amino acid residues]	0	0	3	0	0	2	0	0	2	3 and 0	0	0	2	–	◯	extremely excellent germination inhibitory activity
KKVAK (listed as Solanum lycopersicum) [TsORF6-1-5aa-14, partial peptide of TsORF6-1, 5 amino acid residues]	0	0	0	0	0	0	0	0	0	0	0	0	0	–	Δ	–
MKVMI (listed as Solanum lycopersicum) [TsORF6-1-5aa-1, partial peptide of TsORF6-1, 5 amino acid residues]	0	0	1	0	0	1	0	0	1	0	0	0	1	–	◯	extremely excellent germination inhibitory activity
KVMIV (listed as Solanum lycopersicum) [TsORF6-1-5aa-2, partial peptide of TsORF6-1, 5 amino acid residues]	0	0	1	0	0	1	0	0	1	0	0	0	0	–	◯	extremely excellent germination inhibitory activity
VMIVV (listed as Solanum lycopersicum) [TsORF6-1-5aa-3, partial peptide of TsORF6-1, 5 amino acid residues]	0	0	1	0	0	1	0	0	1	0	0	0	0	–	◯	extremely excellent germination inhibitory activity
